Results reported in PubChem BioAssay (NCI).
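Tested at 5 concentrations; 48 h exposure; 96-well plates; endpoints linearly interpolated, else capped at highest concentration. TGI: total growth inhibition.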

Experiments:
Test in all cases: growth of human tumour cells (NCI), 48 h
[1] = tested on: 786-0 renal
[2] = tested on: A498 renal
[3] = tested on: A549 NSCLC
[4] = tested on: ACHN renal
[5] = tested on: BT-549 breast
[6] = tested on: CAKI-1 renal
[7] = tested on: CCRF-CEM leukemia
[8] = tested on: COLO 205 colon
[9] = tested on: DU-145 prostate
[10] = tested on: EKVX NSCLC
[11] = tested on: HCC-2998 colon
[12] = tested on: HCT-116 colon
[13] = tested on: HCT-15 colon
[14] = tested on: HL-60(TB) leukemia
[15] = tested on: HOP-62 NSCLC
[16] = tested on: HOP-92 NSCLC
[17] = tested on: HS 578T breast
[18] = tested on: HT29 colon
[19] = tested on: IGROV1 ovarian
[20] = tested on: K-562 leukemia
[21] = tested on: KM12 colon
[22] = tested on: LOX IMVI melanoma
[23] = tested on: M14 melanoma
[24] = tested on: MALME-3M melanoma
[25] = tested on: MCF7 breast
[26] = tested on: MDA-MB-231 breast
[27] = tested on: MDA-MB-435
[28] = tested on: MDA-N
[29] = tested on: NCI-H226 lung
[30] = tested on: NCI-H23 lung
[31] = tested on: NCI-H460 lung
[32] = tested on: NCI-H522 lung
[33] = tested on: NCI/ADR-RES ovarian
[34] = tested on: OVCAR-3 ovarian
[35] = tested on: OVCAR-4 ovarian
[36] = tested on: OVCAR-5 ovarian
[37] = tested on: OVCAR-8 ovarian
[38] = tested on: PC-3 prostate
[39] = tested on: RPMI-8226 leukemia
[40] = tested on: RXF 393 renal
[41] = tested on: SF-268 CNS
[42] = tested on: SF-295 CNS
[43] = tested on: SK-MEL-2 melanoma
[44] = tested on: SK-MEL-28 melanoma
[45] = tested on: SK-MEL-5 melanoma
[46] = tested on: SK-OV-3 ovarian
[47] = tested on: SN12C renal
[48] = tested on: SNB-19 CNS
[49] = tested on: SNB-75 CNS
[50] = tested on: SR leukemia
[51] = tested on: SW-620 colon
[52] = tested on: T-47D breast
[53] = tested on: TK-10 renal
[54] = tested on: U251 CNS
[55] = tested on: UACC-257 melanoma
[56] = tested on: UACC-62 melanoma
[57] = tested on: UO-31 renal

Measured: TGI

CC1NCCC(CC(=O)O)C1CC(=O)O (configuration not stated)
> 100 µM: [1] | [2] | [3] | [4] | [5] | [6] | [7] | [8] | [9] | [10] | [11] | [12] | [13] | [14] | [15] | [16] | [17] | [18] | [19] | [20] | [21] | [22] | [23] | [24] | [25] | [26] | [27] | [28] | [29] | [30] | [31] | [32] | [33] | [34] | [35] | [36] | [37] | [38] | [39] | [40] | [41] | [42] | [43] | [44] | [45] | [46] | [47] | [48] | [49] | [50] | [51] | [52] | [53] | [54] | [55] | [56] | [57]
